From patent publication US6362183B1, “Aromatic sulfonyl alpha-hydroxy hydroxamic acid compounds” (G. D. Searle & Company, priority 1997, dated 2002)

Experiments:
MMP-3 = MMP-3 (Homo sapiens, UniProt P08254); assay: In vitro metalloprotease inhibition, fluorogenic peptide assay; type: biochemical; conditions: MCA peptide substrate 4 μM, room temperature, pH 7.5
Description: (§1) Briefly, 4-aminophenylmercuric acetate (APMA) or trypsin activated MMPs were incubated with various concentrations of the inhibitor compound at room temperature for 5 minutes.
(§2) MCA-ProLeuGlyLeuDpaAlaArgNH^2, wherein MCA is methoxycoumarin and Dpa is 3-(2,4-dinitrophenyl)-L-2,3-diaminopropionyl alanine.
(§3) The buffer used for assays contained 100 mM Tris-HCl, 100 mM NaCl, 10 mM CaCl2 and 0.05 percent polyethyleneglycol (23) lauryl ether at a pH value of 7.5.

MMP-2 = target: T1, MMP-2 (Homo sapiens, UniProt P08253); assay: as above; type: biochemical; conditions: MCA peptide substrate 4 μM, room temperature, pH 7.5
T1 sequence (P08253 110-660): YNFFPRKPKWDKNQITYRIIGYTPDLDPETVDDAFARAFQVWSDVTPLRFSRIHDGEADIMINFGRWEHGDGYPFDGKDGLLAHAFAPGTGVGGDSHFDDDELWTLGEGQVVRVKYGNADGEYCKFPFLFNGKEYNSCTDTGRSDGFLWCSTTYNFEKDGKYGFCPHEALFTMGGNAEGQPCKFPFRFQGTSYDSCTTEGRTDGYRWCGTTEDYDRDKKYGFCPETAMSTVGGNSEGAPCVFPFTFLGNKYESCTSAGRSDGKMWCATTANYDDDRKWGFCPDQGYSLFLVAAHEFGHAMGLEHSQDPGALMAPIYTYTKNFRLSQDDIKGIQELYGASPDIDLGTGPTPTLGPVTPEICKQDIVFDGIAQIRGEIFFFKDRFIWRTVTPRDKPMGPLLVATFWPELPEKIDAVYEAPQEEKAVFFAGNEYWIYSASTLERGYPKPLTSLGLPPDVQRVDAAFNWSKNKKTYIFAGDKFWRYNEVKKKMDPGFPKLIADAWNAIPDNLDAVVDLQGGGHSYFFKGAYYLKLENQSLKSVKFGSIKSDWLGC
Description: as §1, §2, §3

MMP-9 = MMP-9 (Homo sapiens, UniProt P14780); assay: as above; type: biochemical; conditions: MCA peptide substrate 4 μM, room temperature, pH 7.5
Description: as §1, §2, §3

MMP-8 = MMP-8 (Homo sapiens, UniProt P22894); assay: as above; type: biochemical; conditions: MCA peptide substrate 4 μM, room temperature, pH 7.5
Description: as §1, §2, §3

recombinant human MMP-13 = target: T2, recombinant human MMP-13 (Homo sapiens, UniProt P45452); assay: as above; type: biochemical; conditions: for IC50: APMA-activated enzyme, MCA peptide substrate 4 μM, room temperature, pH 7.5
T2 construct: made in house
Description: as §1
(§4) More specifically, recombinant human MMP-13 and MMP-1 enzymes were prepared in laboratories of the assignee. MMP-13 was expressed in baculovirus as a proenzyme, and purified first over a heparin agarose column and then over a chelating zinc chloride column. The proenzyme was activated by APMA for use in the assay. MMP-1 expressed in transfected HT-1080 cells was provided by Dr. Howard Welgus of Washington University, St. Louis, Mo. The enzyme was also activated using APMA and was then purified over a hydroxamic acid column.
as §2, §3

recombinant human MMP-1 = target: T3, recombinant human MMP-1 (Homo sapiens, UniProt P03956); assay: as above; type: biochemical; conditions: APMA-activated enzyme, MCA peptide substrate 4 μM, room temperature, pH 7.5
T3 construct: made in house; host or cells: transfected HT-1080 cells
T3 sequence (P03956 100-469): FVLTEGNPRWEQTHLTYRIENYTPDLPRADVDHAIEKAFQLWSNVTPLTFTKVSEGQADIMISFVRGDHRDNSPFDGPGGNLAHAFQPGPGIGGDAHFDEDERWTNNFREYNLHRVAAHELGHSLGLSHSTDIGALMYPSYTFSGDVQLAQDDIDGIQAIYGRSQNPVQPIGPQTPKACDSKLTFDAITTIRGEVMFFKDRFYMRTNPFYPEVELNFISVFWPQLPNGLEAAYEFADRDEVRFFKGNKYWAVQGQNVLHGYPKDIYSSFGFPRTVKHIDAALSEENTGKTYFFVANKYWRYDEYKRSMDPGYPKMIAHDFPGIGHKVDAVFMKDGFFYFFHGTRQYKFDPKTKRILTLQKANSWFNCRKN
Description: as §1, §4, §2, §3

[1] = system: angiogenesis in the cornea of a mouse; assay: In vivo angiogenesis assay (corneal micropocket assay); set-up: species or system mouse (C57Bl/6); conditions: area of corneal neovascularization, bFGF pellet, dosed daily, scored at day five; exemplary dose 50 mg/kg bid, po
Description: The study of angiogenesis depends on a reliable and reproducible model for the stimulation and inhibition of a neovascular response. The corneal micropocket assay provides such a model of angiogenesis in the cornea of a mouse. See, A Model of Angiogenesis in the Mouse Cornea; Kenyon, B M, et al., Investigative Ophthalmology & Visual Science, Jul.
In this assay, uniformly sized Hydron™ pellets containing bFGF and sucralfate were prepared and surgically implanted into the stroma mouse cornea adjacent to the temporal limbus. The pellets were formed by making a suspension of 20 μL sterile saline containing […] recombinant bFGF, 10 mg of sucralfate and 10 μL of 12 percent Hydron™ in ethanol. The slurry was then deposited on a 10×10 mm piece of sterile nylon mesh. After drying, the nylon fibers of the mesh were separated to release the pellets.
The corneal pocket was made by anesthetizing a 7 week old C57Bl/6 female mouse, then proptosing the eye with a jeweler's forceps. Using a dissecting microscope, a central, intrastromal linear keratotomy of approximately 0.6 mm in length was performed with a #15 surgical blade, parallel to the insertion of the lateral rectus muscle. Using a modified cataract knife, a lamellar micropocket was dissected toward the temporal limbus. The pocket was extended to within 1.0 mm of the temporal limbus. A single pellet was placed on the corneal surface at the base of the pocket with a jeweler's forceps. The pellet was then advanced to the temporal end of the pocket. Antibiotic ointment was then applied to the eye.
Mice were dosed on a daily basis for the duration of the assay. Dosing of the animals was based on bioavailability and overall potency of the compound. An exemplary dose is 50 mg/kg bid, po. Neovascularization of the corneal stroma begins at about day three and was permitted to continue under the influence of the assayed compound until day five. At day five, the degree of angiogenic inhibition was scored by viewing the neovascular progression with a slit lamp microscope.
The mice were anesthetized and the studied eye was once again proptosed. The maximum vessel length of neovascularization, extending from the limbal vascular plexus toward the pellet was measured. In addition, the contiguous circumferential zone of neovascularization was measured as clock hours, where 30 degrees of arc equals one clock hour. The area of angiogenesis was calculated as follows. [formula]
The studied mice were thereafter compared to control mice and the difference in the area of neovascularization was recorded.

[2] = system: advanced, rapidly progressive, treatment-refractory solid tumor cancers; conditions: patients with colorectal, pancreatic, ovarian, prostate cancers; cited from earlier work

MMP-3, sequence (P08254 100-477, species assumed): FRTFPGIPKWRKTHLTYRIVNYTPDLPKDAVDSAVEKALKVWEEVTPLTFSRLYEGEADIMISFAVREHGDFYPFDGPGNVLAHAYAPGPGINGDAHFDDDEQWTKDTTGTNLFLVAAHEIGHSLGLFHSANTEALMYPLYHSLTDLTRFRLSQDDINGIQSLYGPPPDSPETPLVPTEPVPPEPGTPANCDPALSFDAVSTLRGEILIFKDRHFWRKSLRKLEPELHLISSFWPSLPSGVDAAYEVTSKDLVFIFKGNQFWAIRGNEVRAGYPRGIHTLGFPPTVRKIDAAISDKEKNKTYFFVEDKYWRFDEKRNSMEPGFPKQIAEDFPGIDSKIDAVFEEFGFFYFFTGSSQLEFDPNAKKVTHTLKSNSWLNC
MMP-9, sequence (P14780 107-707 limits assumed, species assumed): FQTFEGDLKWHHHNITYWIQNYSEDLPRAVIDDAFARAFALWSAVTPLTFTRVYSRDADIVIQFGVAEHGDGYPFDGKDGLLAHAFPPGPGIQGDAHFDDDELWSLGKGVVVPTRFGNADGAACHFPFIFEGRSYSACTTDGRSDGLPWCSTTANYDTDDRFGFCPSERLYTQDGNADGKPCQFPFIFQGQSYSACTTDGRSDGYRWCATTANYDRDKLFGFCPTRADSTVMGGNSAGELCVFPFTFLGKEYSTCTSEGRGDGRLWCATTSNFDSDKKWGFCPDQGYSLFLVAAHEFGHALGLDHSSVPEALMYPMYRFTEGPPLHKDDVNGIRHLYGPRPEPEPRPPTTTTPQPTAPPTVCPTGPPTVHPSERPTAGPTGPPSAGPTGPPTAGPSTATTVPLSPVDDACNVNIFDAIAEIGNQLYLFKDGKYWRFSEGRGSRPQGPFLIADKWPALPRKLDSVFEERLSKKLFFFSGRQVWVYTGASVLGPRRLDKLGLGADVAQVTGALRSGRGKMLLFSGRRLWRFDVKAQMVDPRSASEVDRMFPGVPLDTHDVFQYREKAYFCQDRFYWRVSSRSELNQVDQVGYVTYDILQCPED
MMP-8, sequence (P22894 101-467, species assumed): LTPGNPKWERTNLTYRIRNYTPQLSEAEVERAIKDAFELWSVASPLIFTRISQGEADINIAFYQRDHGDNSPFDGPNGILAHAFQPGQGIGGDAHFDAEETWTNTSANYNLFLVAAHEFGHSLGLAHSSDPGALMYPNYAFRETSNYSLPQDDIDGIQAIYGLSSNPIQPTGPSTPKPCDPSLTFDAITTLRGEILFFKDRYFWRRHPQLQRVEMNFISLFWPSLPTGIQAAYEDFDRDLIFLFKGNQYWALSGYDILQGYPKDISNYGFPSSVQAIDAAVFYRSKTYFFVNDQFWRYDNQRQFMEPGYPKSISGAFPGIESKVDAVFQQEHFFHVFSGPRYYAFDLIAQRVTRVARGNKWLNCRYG

| IC50 (MMP-3) | IC50 (MMP-2) | IC50 (MMP-9) | IC50 (MMP-8) | IC50 (recombinant human MMP-13) | IC50 (recombinant human MMP-1) | ratio of inhibition of MMP-1 to inhibition of MMP-13, relative to the compound of opposite configuration (recombinant human MMP-13; Example 1A versus Example 1B) | inhibitory activity against MMP-13 (in words) (recombinant human MMP-13; discussion of Table 51) | Structure (SMILES) | Percentage of Control [1] | effect on cancer-specific antigens used as surrogate markers for biological activity [2] |
| --- | --- | --- | --- | --- | --- | --- | --- | --- | --- | --- |
| 30 nM | 0.5 nM | 4.8 nM | 2.5 nM | 1.1 nM | 1100 nM | – | – | CC(O)(CS(=O)(=O)c1ccc(Oc2ccccc2)cc1)C(=O)NO (stereo not shown) [Example 1, N,2-dihydroxy-2-methyl-3-[(4-phenoxyphenyl)sulfonyl]propanamide] | 51.9% | – |
| – | 0.39 nM | 1.7 nM | – | 0.75 nM | 1010 nM | about 2 times | – | C[C@@](O)(CS(=O)(=O)c1ccc(Oc2ccccc2)cc1)C(=O)NO [Example 1A, (S)—N,2-dihydroxy-2-methyl-3-[(4-phenoxyphenyl)sulfonyl]propanamide] | 62.7% | – |
| – | 11 nM | 328 nM | – | 21.5 nM | > 10000 nM | – | – | C[C@](O)(CS(=O)(=O)c1ccc(Oc2ccccc2)cc1)C(=O)NO [Example 1B, (R)—N,2-dihydroxy-2-methyl-3-[(4-phenoxyphenyl)sulfonyl]-propanamide] | 49.3% | – |
| 44 nM | 1 nM | 7 nM | 4.1 nM | 1.2 nM | 470 nM | – | – | O=C(NO)C(O)(CO)CS(=O)(=O)c1ccc(Oc2ccccc2)cc1 (stereo not shown) [Example 2, N,2-dihydroxy-2-(hydroxymethyl)-3-[(4-phenoxyphenyl)-sulfonyl]propanamide] | 53.4% | – |
| 166 nM | 1 nM | 20 nM | 4 nM | 3 nM | 6000 nM | – | – | Cl.O=C(NO)C(O)(CN1CCOCC1)CS(=O)(=O)c1ccc(Oc2ccccc2)cc1 (stereo not drawn) [Example 3, N,α-dihydroxy-α-[[(4-phenoxyphenyl)sulfonyl]methyl]-4-morpholinepropanamide, monohydrochloride] | 77.4% | – |
| 48.5 nM | 0.4 nM | 12.4 nM | 4.5 nM | 0.4 nM | 9000 nM | – | – | Cc1ccc(Oc2ccc(S(=O)(=O)CC(O)(CO)C(=O)NO)cc2)cc1C (stereo not shown) [Example 4, 3-[[4-(3,4-dimethylphenoxy)phenyl]sulfonyl]-N,2-dihydroxy-2-(hydroxymethyl)propanamide] | 65.2% | – |
| 26.8 nM | 2.4 nM | 3.4 nM | 2.5 nM | 1.3 nM | > 10000 nM | – | – | Cc1ccc(Oc2ccc(S(=O)(=O)CC(C)(O)C(=O)NO)cc2)cc1C (stereo not shown) [Example 5, 3-[[4-(3,4-dimethylphenoxy)phenyl]sulfonyl]-N,2-dihydroxy-2-methylpropanamide] | 57.8% | – |
| 51.8 nM | 2 nM | 13 nM | 4 nM | 2.1 nM | > 10000 nM | – | – | Cc1ccc(Oc2ccc(S(=O)(=O)CC(O)(CN3CCOCC3)C(=O)NO)cc2)cc1C (stereo not drawn) [Example 7, α-[[[4-(3,4-dimethylphenoxy)-phenyl]sulfonyl]methyl]-N-2-dihydroxy-4-morpholineproanamide] | – | – |
| – | 0.4 nM | 16 nM | – | 0.2 nM | 3000 nM | – | excellent activity | O=C(NO)C(O)CS(=O)(=O)c1ccc(Oc2ccccc2)cc1 (stereo not shown) [Example 9] | 61.1% | – |
| – | 0.8 nM | 1160 nM | – | 110 nM | > 10000 nM | – | – | CC(O)(CS(=O)(=O)c1ccc(NC(=O)c2ccccc2)cc1)C(=O)NO (stereo not shown) [Example 16, N-[4-[[2-hydroxy-3-(hydroxyamino)-2-methyl-3-oxopropyl]-sulfonyl]phenyl]benzamide] | 41.6% | – |
| – | – | – | – | – | – | – | – | CNC(=O)[C@@H](NC(=O)[C@H](CC(C)C)[C@H](O)C(=O)NO)C(C)(C)C [marimastat] | – | dose-related reduction in the rise of cancer-specific antigens |
